# According to US20130085064A1, “PESTICIDAL MIXTURES CONTAINING ISOXAZOLINE DERIVATIVES AND INSECTICIDE OR NEMATOICIDAL BIOLOGICAL AGENT” (priority 2010, published 2013):
# Values joined by “and” are separate entries in the source; they are usually repeats but may differ in a detail not shown here. Equal values may be shown once. Read-outs that look alike come from different tables or passages of the source.
# Experiments:
# [1] = system: Heliothis virescens (tobacco budworm); assay: Heliothis virescens eggs in 24-well microtiter plate on artificial diet, larval mortality; assay type: in vivo; settings: for pest or weed control at 0.375 ppm / pest or weed control at 0.75 ppm / pest or weed control at 1.5 ppm / pest or weed control at 3 ppm / pest or weed control at 6 ppm / pest or weed control at 12 ppm / pest or weed control at 6.25 ppm / pest or weed control at 12.5 ppm / pest or weed control at 25 ppm / pest or weed control at 50 ppm / pest or weed control at 100 ppm / pest or weed control at 200 ppm: Heliothis virescens, 96 h, read-out: AVERAGE DEAD IN %
# Text: (§1) The action to be expected E for a given active ingredient combination obeys the so-called COLBY formula and can be calculated as follows (COLBY, S.R. “Calculating synergistic and antagonistic responses of herbicide combination”. Weeds, Vol. 15, pages 20-22; 1967):
# (§2) ppm=milligrams of active ingredient (=a.i.) per liter of spray mixture X=% action by active ingredient A) using p ppm of active ingredient Y=% action by active ingredient B) using q ppm of active ingredient.
# (§3) According to COLBY, the expected (additive) action of active ingredients A)+B) using p+q ppm of active ingredient is
# (§4) If the action actually observed (O) is greater than the expected action (E), then the action of the combination is super-additive, i.e. there is a synergistic effect. In mathematical terms the synergism factor SF corresponds to O/E. In the agricultural practice an SF of ≧1.2 indicates significant improvement over the purely complementary addition of activities (expected activity), while an SF of ≦0.9 in the practical application routine signals a loss of activity compared to the expected activity.
# Heliothis Virescens (Tobacco Budworm)
# Eggs (0-24 h old) are placed in 24-well microtiter plate on artificial diet and treated with test solutions (DMSO) by pipetting. After an incubation period of 4 days, samples are checked for larval mortality.
# [2] = system: Tetranychus urticae (two-spotted spider mite); assay: Tetranychus urticae bean leaf discs in 24-well microtiter plates, mixed population mortality; assay type: in vivo; settings: 8 days
# Text: as §1, §2, §3, §4
# Tetranychus Urticae (Two-Spotted Spider Mite)
# Bean leaf discs on agar in 24-well microtiter plates are sprayed with test solutions (DMSO). After drying, the leaf discs are infested with mite populations of mixed ages. 8 days later, discs are checked for mixed population mortality.
# [3] = single compound, 12.5 ppm AI, larval mortality, 4 days
# [4] = single compound, 25 ppm AI, larval mortality, 4 days
# [5] = single compound, 50 ppm AI, larval mortality, 4 days
# [6] = single compound, 100 ppm AI, larval mortality, 4 days
# [7] = single compound, 200 ppm AI, larval mortality, 4 days
molecule,measurement,setting,value
CN/C(=N\[N+](=O)[O-])NCc1cnc(Cl)s1 [Clothianidin],pest or weed control at 0.375 ppm,[1]; Clothianidin alone 0.375 ppm AI,0%
same,pest or weed control at 0.75 ppm,[1]; Clothianidin alone 0.75 ppm AI,0%
same,pest or weed control at 1.5 ppm,[1]; Clothianidin alone 1.5 ppm AI,0%
same,pest or weed control at 3 ppm,[1]; Clothianidin alone 3 ppm AI,3%
same,pest or weed control at 6 ppm,[1]; Clothianidin alone 6 ppm AI,38%
same,pest or weed control at 12 ppm,[1]; Clothianidin alone 12 ppm AI,48%
same,pest or weed control at 0.375 ppm,[1]; single compound at 0.375 ppm AI,0%
same,pest or weed control at 0.75 ppm,[1]; single compound at 0.75 ppm AI,0%
same,pest or weed control at 1.5 ppm,[1]; single compound at 1.5 ppm AI,0%
same,pest or weed control at 3 ppm,[1]; single compound at 3 ppm AI,3%
same,pest or weed control at 6 ppm,[1]; single compound at 6 ppm AI,38%
same,pest or weed control at 12 ppm,[1]; single compound at 12 ppm AI,48%
same,pest or weed control at 0.375 ppm,"[1]; single compound, 0.375 ppm AI, larval mortality, 4 days",0%
same,pest or weed control at 0.75 ppm,"[1]; single compound, 0.75 ppm AI, larval mortality, 4 days",0%
same,pest or weed control at 1.5 ppm,"[1]; single compound, 1.5 ppm AI, larval mortality, 4 days",0%
same,pest or weed control at 3 ppm,"[1]; single compound, 3 ppm AI, larval mortality, 4 days",0%
same,pest or weed control at 6 ppm,"[1]; single compound, 6 ppm AI, larval mortality, 4 days",45%
same,pest or weed control at 12 ppm,"[1]; single compound, 12 ppm AI, larval mortality, 4 days",80%
Cc1cc(C2=NOC(c3cc(Cl)cc(Cl)c3)(C(F)(F)F)C2)ccc1C(=O)NC1CSC1 (racemic) [SYN 545706],AVERAGE DEAD IN %,"[1]; single compound, 0.1 ppm AI, larval mortality, 4 days",0%
same,AVERAGE DEAD IN %,"[1]; single compound, 0.2 ppm AI, larval mortality, 4 days",35% and 25%
same,AVERAGE DEAD IN %,"[1]; single compound, 0.4 ppm AI, larval mortality, 4 days",90% and 78%
same,AVERAGE DEAD IN %,"[1]; single compound, 0.8 ppm AI, larval mortality, 4 days",95% and 88%
same,AVERAGE DEAD IN %,"[1]; single compound, 1.6 ppm AI, larval mortality, 4 days",90% and 91%
same,AVERAGE DEAD IN %,"[1]; single compound, 3.2 ppm AI, larval mortality, 4 days",98% and 96%
O=[N+]([O-])NC1=NCCN1Cc1ccc(Cl)nc1 [Imidacloprid],pest or weed control at 6.25 ppm,[1]; Imidacloprid alone 6.25 ppm AI,0%
same,pest or weed control at 12.5 ppm,[1]; Imidacloprid alone 12.5 ppm AI,0%
same,pest or weed control at 25 ppm,[1]; Imidacloprid alone 25 ppm AI,20%
same,pest or weed control at 50 ppm,[1]; Imidacloprid alone 50 ppm AI,50%
same,pest or weed control at 100 ppm,[1]; Imidacloprid alone 100 ppm AI,95%
same,pest or weed control at 200 ppm,[1]; Imidacloprid alone 200 ppm AI,100%
same,pest or weed control at 6.25 ppm,[1]; single compound at 6.25 ppm AI,0%
same,pest or weed control at 12.5 ppm,[1]; single compound at 12.5 ppm AI,0%
same,pest or weed control at 25 ppm,[1]; single compound at 25 ppm AI,20%
same,pest or weed control at 50 ppm,[1]; single compound at 50 ppm AI,50%
same,pest or weed control at 100 ppm,[1]; single compound at 100 ppm AI,95%
same,pest or weed control at 200 ppm,[1]; single compound at 200 ppm AI,100%
same,pest or weed control at 6.25 ppm,"[1]; single compound, 6.25 ppm AI, larval mortality, 4 days",0%
same,pest or weed control at 12.5 ppm,[1]; [3],0%
same,pest or weed control at 25 ppm,[1]; [4],75%
same,pest or weed control at 50 ppm,[1]; [5],85%
same,pest or weed control at 100 ppm,[1]; [6],88%
same,pest or weed control at 200 ppm,[1]; [7],100%
same,AVERAGE DEAD IN %,[2]; 25 ppm alone,0%
same,AVERAGE DEAD IN %,[2]; 50 ppm alone,0%
same,AVERAGE DEAD IN %,[2]; 100 ppm alone,25%
same,AVERAGE DEAD IN %,[2]; 200 ppm alone,0%
same,AVERAGE DEAD IN %,[2]; 400 ppm alone,13%
same,AVERAGE DEAD IN %,[2]; 800 ppm alone,25%
same,AVERAGE DEAD IN %,"[2]; Imidacloprid alone, 25 ppm, Table 123",0%
same,AVERAGE DEAD IN %,"[2]; Imidacloprid alone, 50 ppm, Table 123",0%
same,AVERAGE DEAD IN %,"[2]; Imidacloprid alone, 100 ppm, Table 123",25%
same,AVERAGE DEAD IN %,"[2]; Imidacloprid alone, 200 ppm, Table 123",0%
same,AVERAGE DEAD IN %,"[2]; Imidacloprid alone, 400 ppm, Table 123",13%
same,AVERAGE DEAD IN %,"[2]; Imidacloprid alone, 800 ppm, Table 123",25%
N#CCNC(=O)c1cnccc1C(F)(F)F [Flonicamid],AVERAGE DEAD IN %,[1]; Flonicamid alone 12.5 ppm AI,0%
same,AVERAGE DEAD IN %,[1]; Flonicamid alone 25 ppm AI,0%
same,AVERAGE DEAD IN %,[1]; Flonicamid alone 50 ppm AI,0%
same,AVERAGE DEAD IN %,[1]; Flonicamid alone 100 ppm AI,0%
same,AVERAGE DEAD IN %,[1]; Flonicamid alone 200 ppm AI,0%
same,AVERAGE DEAD IN %,[1]; Flonicamid alone 400 ppm AI,0%
same,AVERAGE DEAD IN %,[1]; single compound at 12.5 ppm AI,0%
same,AVERAGE DEAD IN %,[1]; single compound at 25 ppm AI,0%
same,AVERAGE DEAD IN %,[1]; single compound at 50 ppm AI,0%
same,AVERAGE DEAD IN %,[1]; single compound at 100 ppm AI,0%
same,AVERAGE DEAD IN %,[1]; single compound at 200 ppm AI,0%
same,AVERAGE DEAD IN %,[1]; single compound at 400 ppm AI,0%
same,AVERAGE DEAD IN %,[1]; [3],0%
same,AVERAGE DEAD IN %,[1]; [4],0%
same,AVERAGE DEAD IN %,[1]; [5],15%
same,AVERAGE DEAD IN %,[1]; [6],0%
same,AVERAGE DEAD IN %,[1]; [7],0%
same,AVERAGE DEAD IN %,"[1]; single compound, 400 ppm AI, larval mortality, 4 days",0%
Emamectin,AVERAGE DEAD IN %,[2]; 0.1 ppm alone,70%
same,AVERAGE DEAD IN %,[2]; 0.2 ppm alone,75%
same,AVERAGE DEAD IN %,[2]; 0.4 ppm alone,93%
same,AVERAGE DEAD IN %,[2]; 0.8 ppm alone,95%
same,AVERAGE DEAD IN %,[2]; 1.6 ppm alone,95%
same,AVERAGE DEAD IN %,[2]; 3.2 ppm alone,100%
same,AVERAGE DEAD IN %,"[2]; Emamectin alone, 0.1 ppm, Table 121",70%
same,AVERAGE DEAD IN %,"[2]; Emamectin alone, 0.2 ppm, Table 121",75%
same,AVERAGE DEAD IN %,"[2]; Emamectin alone, 0.4 ppm, Table 121",93%
same,AVERAGE DEAD IN %,"[2]; Emamectin alone, 0.8 ppm, Table 121",95%
same,AVERAGE DEAD IN %,"[2]; Emamectin alone, 1.6 ppm, Table 121",95%
same,AVERAGE DEAD IN %,"[2]; Emamectin alone, 3.2 ppm, Table 121",100%
